Laboratory results as given in patent US8163756B2 (priority 2004, dated 2012).

Assays:
[1] = molecular target: T1, Abl kinase (Homo sapiens, UniProt P00519); experiment: Abl kinase assay A1 (pyruvate kinase/lactate dehydrogenase coupled, spectrophotometric); assay type: biochemical; conditions: Method A1; for IC50: read-out: Abl Data (IC50)
T1 sequence (P00519 229-512): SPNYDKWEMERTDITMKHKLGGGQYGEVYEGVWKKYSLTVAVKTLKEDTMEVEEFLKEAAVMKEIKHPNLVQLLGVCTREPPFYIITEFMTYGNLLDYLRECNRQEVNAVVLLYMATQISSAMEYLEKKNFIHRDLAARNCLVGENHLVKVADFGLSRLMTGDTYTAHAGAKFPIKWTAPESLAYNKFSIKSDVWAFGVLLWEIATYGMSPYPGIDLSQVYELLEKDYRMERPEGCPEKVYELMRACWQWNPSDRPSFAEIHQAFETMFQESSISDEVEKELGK
Experimental: IC50 values were calculated from a series of percent inhibition values determined at a range of inhibitor concentrations using software routines as implemented in the GraphPad Prism software package.

[2] = molecular target: B-Raf(V599E) kinase (Homo sapiens, UniProt P15056, V600E); experiment: B-Raf(V599E) kinase assay B1 (construct 1, MEK1 substrate, coupled spectrophotometric); assay type: biochemical
B-Raf(V599E) kinase, sequence (P15056 with tags, fused parts or gaps V600E): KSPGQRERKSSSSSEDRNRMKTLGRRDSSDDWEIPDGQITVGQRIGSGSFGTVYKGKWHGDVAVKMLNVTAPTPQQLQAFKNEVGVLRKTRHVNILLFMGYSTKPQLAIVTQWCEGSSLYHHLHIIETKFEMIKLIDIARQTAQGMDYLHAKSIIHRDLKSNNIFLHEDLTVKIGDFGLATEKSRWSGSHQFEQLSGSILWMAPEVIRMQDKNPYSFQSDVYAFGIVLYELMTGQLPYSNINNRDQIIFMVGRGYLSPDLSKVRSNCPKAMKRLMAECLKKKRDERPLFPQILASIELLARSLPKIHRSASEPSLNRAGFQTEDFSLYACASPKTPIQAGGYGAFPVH
Experimental: The test compounds were incubated with the reaction mixtureat 30° C. for 2 h. […] The reaction rate was calculated using the […] time frame. […] IC50 values were calculated from a series of percent inhibition values determined at a range of inhibitor concentrations using software routines as implemented in the GraphPad Prism software package.

| SMILES | IC50 [1] | IC50 [2] | inhibition at 10 µM ([1]; @ 10 μM, read-out: Abl Data (percent inhibition)) |
| --- | --- | --- | --- |
| CC(C)(C)c1cc(NC(=O)Nc2cccc(Cl)c2Cl)n(-c2cc(CCN)c3ccccc3c2)n1 [Example 193, 1-(1-(4-(2-aminoethyl)naphthalen-2-yl)-3-t-butyl-1H-pyrazol-5-yl)-3-(2,3-dichlorophenyl)urea] | 81 nM | 2.6 nM | – |
| COc1cccc(-n2nc(C(C)(C)C)cc2NC(=O)Nc2cccc(C#N)c2)c1 [Example 17, 1-(3-t-butyl-1-(3-methoxyphenyl)-1H-pyrazol-5-yl)-3-(3-cyanophenyl)urea] | 370 nM | 89 nM | – |
| CC(=O)N1CCc2cc(-n3nc(C(C)(C)C)cc3NC(=O)Nc3cccc(Cl)c3Cl)ccc21 [Example 107, 1-(1-(1-acetylindolin-5-yl)-3-t-butyl-1H-pyrazol-5-yl)-3-(2,3-dichlorophenyl)urea] | 180 nM | 2.1 nM | – |
| CC(C)(C)c1cc(NC(=O)Nc2cccc(Cl)c2Cl)n(-c2cc(CC(=O)O)c3ccccc3c2)n1 [Example 77, 2-(3-(3-t-butyl-5-(3-(2,3-dichlorophenyl)-ureido)-1H-pyrazol-1-yl)naphthalen-1-yl)acetic acid] | 260 nM | 3.9 nM | – |
| CC(C)(C)c1cc(NC(=O)Nc2cc(F)c(F)c(F)c2)n(-c2cc(CO)c3ccccc3c2)n1 [Example 66, 1-(3-t-butyl-1-(4-(hydroxymethyl)naphthalen-2-yl)-1H-pyrazol-5-yl)-3-(3,4,5-trifluorophenyl)urea] | 71 nM | 8.5 nM | – |
| CC(C)(C)c1cc(NC(=O)Nc2cccc(Cl)c2Cl)n(-c2cccc(CC(=O)NCCO)c2)n1 [Example 37, 1-(3-t-butyl-{1-[3-(2-hydroxyethylamino)-2-oxo-thyl]-phenyl}-1H-pyrazol-5-yl)-3-(2,3-dichlorophenyl)-urea] | 1400 nM | 5.7 nM | – |
| COc1cccc(-n2nc(C(C)(C)C)cc2NC(=O)Nc2cc(Cl)cc(Cl)c2)c1 [Example 14, 1-(3-t-butyl-1-(3-methoxyphenyl)-1H-pyrazol-5-yl)-3-(3,5-dichlorophenyl)urea] | 2400 nM | 70 nM | – |
| CC(C)(C)c1cc(NC(=O)Nc2ccc(F)cc2F)n(-c2cc(CC(N)=O)c3ccccc3c2)n1 [Example 82, 1-(1-(4-(2-amino-2-oxoethyl)naphthalen-2-yl)-3-t-butyl-1H-pyrazol-5-yl)-3-(2,4-difluorophenyl)urea] | 360 nM | 5.9 nM | – |
| CC(C)(C)c1cc(NC(=O)Nc2cc(F)cc(F)c2F)n(-c2cc(CN)c3ccccc3c2)n1 [Example 70, 1-(1-(4-(aminomethyl)naphthalen-2-yl)-3-t-butyl-1H-pyrazol-5-yl)-3-(2,3,5-trifluorophenyl)urea] | 50 nM | 5 nM | – |
| CC(C)(C)c1cc(NC(=O)Nc2ccc(F)c(F)c2F)n(-c2cc(CC(N)=O)c3ccccc3c2)n1 [Example 80, 1-(1-(4-(2-amino-2-oxoethyl)naphthalen-2-yl)-3-t-butyl-1H-pyrazol-5-yl)-3-(2,3,4-trifluorophenyl)urea] | 79 nM | 4.5 nM | – |
| CC(C)(C)c1cc(NC(=O)Nc2ccc(F)cc2F)n(-c2cc(CO)c3ccccc3c2)n1 [Example 63, 1-(3-t-butyl-1-(4-(hydroxylmethyl)naphthalen-2-yl)-1H-pyrazol-5-yl)-3-(2,4-difluorophenyl)urea] | 300 nM | 4 nM | – |
| CC(C)(C)c1cc(NC(=O)Nc2cccc(Cl)c2Cl)n(-c2cc(CC(N)=O)c3ccccc3c2)n1 [Example 78, 2-(3-{3-t-butyl-5-[3-(2,3-dichlorophenyl)ureido]pyrazol-1-yl}naphthalen-1-yl)acetamide] | 72 nM | 3.5 nM | – |
| CC(C)(C)c1cc(NC(=O)Nc2cccc(C#N)c2)n(-c2ccc3c(c2)NCC3)n1 [Example 114, 1-(3-t-butyl-1-(indolin-6-yl)-1H-pyrazol-5-yl)-3-(3-cyanophenyl)urea] | 640 nM | 115 nM | – |
| CC(C)(C)c1cc(NC(=O)Nc2cccc(Cl)c2Cl)n(-c2cccc(CC(=O)O)c2)n1 [Example 373, 2-(3-{3-t-butyl-5-[3-(2,3-dichlorophenyl)-ureido]-1H-pyrazol-1-yl}phenyl)acetic acid] | 3500 nM | 3.2 nM | – |
| CC(C)(C)c1cc(NC(=O)Nc2ccc(Cl)cc2)n(-c2ccc3c(c2)CN(C(=O)NS(C)(=O)=O)CC3)n1 [Example 128, N-(7-{3-t-butyl-5-[3-(4-chloro-phenyl)ureido]pyrazol-1-yl}-3,4-dihydro-1H-isoquinoline-2-carbonyl)methane-sulfonamide] | 7500 nM | 67 nM | – |
| CC(C)(C)c1cc(NC(=O)Nc2ccc(Cl)cc2)n(-c2ccc3c(c2)CNCC3)n1 [Example 124, 1-[3-t-butyl-1-(1,2,3,4-tetrahydroisoquinolin-7-yl)-1H-pyrazol-5-yl]-3-(4-chloro-phenyl)urea] | 1400 nM | 173 nM | – |

| SMILES | IC50 [1] | IC50 [2] | inhibition at 10 µM ([1]; @ 10 μM, read-out: Abl Data (percent inhibition)) |
| --- | --- | --- | --- |
| Cc1ccc(NC(=O)Nc2cc(C(C)(C)C)nn2-c2ccc3c(c2)CCNC3)cc1Nc1ncccn1 [Example 142, 1-(3-t-butyl-1-(1,2,3,4-tetrahydro-isoquinolin-6-yl)-1H-pyrazol-5-yl)-3-(4-methyl-3-(pyrimidin-2-ylamino)phenyl)-urea] | 170 nM | 35 nM | – |
| CC(C)(C)c1cc(NC(=O)Nc2ccc(F)cc2F)n(-c2ccc3c(c2)CCNC3)n1 [Example 145, 1-(3-t-butyl-1-(1,2,3,4-tetrahydroiso-quinolin-6-yl)-1H-pyrazol-5-yl)-3-(2,4-difluorophenyl)-urea] | 410 nM | 13 nM | – |
| CC(C)(C)c1cc(NC(=O)Nc2ccc(F)cc2)n(-c2cc(CC(N)=O)c3ccccc3c2)n1 [Example 84, 1-(1-(4-(2-amino-2-oxoethyl)naphthalen-2-yl)-3-t-butyl-1H-pyrazol-5-yl)-3-(4-fluorophenyl)urea] | 390 nM | 11 nM | – |
| CC(C)(C)c1cc(NC(=O)Nc2cccc(Cl)c2Cl)n(-c2ccc3c(c2)C(O)CC3)n1 (centres unmarked) [Example 103, 1-[5-t-butyl-2-(3-hydroxy-indan-5-yl)-2H-pyrazol-3-yl]-3-(2,3-dichlorophenyl)urea] | 240 nM | 4.5 nM | – |
| CCOC(=O)Cc1cc(-n2nc(C(C)(C)C)cc2NC(=O)Nc2cccc(Cl)c2Cl)cc2ccccc12 [Example 76] | – | 11 nM | 31% |
| CC(C)(C)c1cc(NC(=O)Nc2cccc(F)c2F)n(-c2ccc3c(c2)CCNC3)n1 [Example 144, 1-(3-t-butyl-1-(1,2,3,4-tetrahydroiso-quinolin-6-yl)-1H-pyrazol-5-yl)-3-(2,3-difluorophenyl)-urea] | 200 nM | 9.6 nM | – |
| CC(C)(C)c1cc(NC(=O)Nc2cccc(Cl)c2Cl)n(-c2cccc(-c3cccnc3)c2)n1 [Example 276, 1-[5-t-butyl-2-(3-pyridin-3-yl-phenyl)-2H-pyrazol-3-yl]-3-(2,3-dichlorophenyl)urea] | 2300 nM | 4.9 nM | – |
| CC(C)(C)c1cc(NC(=O)Nc2ccc(F)c(F)c2F)n(-c2cc(CO)c3ccccc3c2)n1 [Example 62, 1-(3-t-butyl-1-(4-(hydroxylmethyl)naphthalen-2-yl)-1H-pyrazol-5-yl)-3-(2,3,4-trifluorophenyl)urea] | 110 nM | 3.2 nM | – |
| CC(C)(C)c1cc(NC(=O)Nc2ccc(F)c(F)c2F)n(-c2ccc3c(c2)CCNC3)n1 [Example 147, 1-(3-t-butyl-1-(1,2,3,4-tetrahydroiso-quinolin-6-yl)-1H-pyrazol-5-yl)-3-(2,3,4-trifluorophenyl)-urea] | 140 nM | 10 nM | – |
| CC(C)(C)c1cc(NC(=O)Nc2cc(F)c(F)cc2F)n(-c2cc(CO)c3ccccc3c2)n1 [Example 64, 1-(3-t-butyl-1-(4-(hydroxymethyl)naphthalen-2-yl)-1H-pyrazol-5-yl)-3-(2,4,5-trifluorophenyl)urea] | 63 nM | 3.3 nM | – |
| CC(C)(C)c1cc(NC(=O)Nc2cccc(Cl)c2Cl)n(-c2ccc3c(c2)C(N)CC3)n1 (centres unmarked) [Example 105, 1-[2-(3-amino-indan-5-yl)-5-t-butyl-2H-pyrazol-3-yl]-3-(2,3-dichlorophenyl)urea] | 240 nM | 12 nM | – |
| CC(C)(C)c1cc(NC(=O)Nc2cccc(Br)c2)n(-c2cccc(CN)c2)n1 [Example 41, 1-(1-[3-(aminomethyl)phenyl]-3-t-butyl-1H-pyrazol-5-yl)-3-(3-bromophenyl)urea] | 3700 nM | 89 nM | – |
| CC(C)(C)c1cc(NC(=O)Nc2cccc(C#N)c2)n(-c2ccc3c(c2)CCN3)n1 [Example 111, 1-(3-t-butyl-1-(indolin-5-yl)-1H-pyrazol-5-yl)-3-(3-cyanophenyl)urea] | 620 nM | 97 nM | – |
| CC(C)(C)c1cc(NC(=O)Nc2cc(F)cc(F)c2)n(-c2cc(CC(N)=O)c3ccccc3c2)n1 [Example 83, 1-(1-(4-(2-amino-2-oxoethyl)naphthalen-2-yl)-3-t-butyl-1H-pyrazol-5-yl)-3-(3,5-difluorophenyl)urea] | 87 nM | 8.5 nM | – |
| CC(C)(C)c1cc(NC(=O)Nc2cc(F)c(F)cc2F)n(-c2cc(CN)c3ccccc3c2)n1 [Example 71, 1-(1-(4-(aminomethyl)naphthalen-2-yl)-3-t-butyl-1H-pyrazol-5-yl)-3-(2,4,5-trifluorophenyl)urea] | 90 nM | 4.1 nM | – |
